Source: patent US20060185030A1, “Cytokinin response regulators and uses thereof” (priority 2001, published 2006)

What was measured:
RD29A promoter = experiment: Arabidopsis mesophyll protoplast transient expression assay, RD29A-LUC reporter; assay type: cell-based; settings: 100 μM ABA, 3 hours
ARR6 promoter = experiment: Arabidopsis mesophyll protoplast transient expression assay, ARR6-LUC reporter; assay type: cell-based; settings: for activity of ARR6-LUC (hormone specificity): 100 nM t-zeatin, 1 μM IAA or 100 μM ABA, 3 hours of incubation; for induction of the reporter gene ARR6-LUC by cytokinin analogues: 100 nM, FIG. 1C; for activation of ARR6-LUC by over-expressed effector: absence of exogenous cytokinin
Description: To elucidate the regulatory circuitry in cytokinin signal transduction, a leaf cell assay based on cytokinin inducible transcription in Arabidopsis mesophyll protoplasts was developed. The 2.4 kb promoter of an Arabidopsis cytokinin primary response gene (SEQ ID NO.: 1), encoding the response regulator 6 (ARR6), was fused to the firefly luciferase (LUC) reporter. In FIG. 1A, transfected protoplasts were incubated with or without 100 nM t-zeatin, 1 μM indole-3-acetic acid (IAA), or 100 μM ABA. After 3 hours of incubation, LUC and GUS activities were determined.
(§1) Arabidopsis Bensheim (BE) protoplasts were isolated and transfected as described with some modifications (Kovtun et al., Proc. Natl. Acad. Sci. USA 97: 2940-5 2000). […] For instance, in the experiments shown in FIG. 1A, protoplasts (4×10^4) were transfected with 2 μg of UBQ10-GUS (internal control) and 20 μg of ARR6-LUC, GH3-LUC, or RD29ALUC plasmid DNA. Transfected protoplasts were incubated at 1×10^4 per mil with/without 1-100 nM of t-zeatin for 3-6 hours under the light at 23° C. The UBQ10-GUS construct was used as an internal control to normalize the variations of each transfection in cell numbers, transformation efficiency and cell viability. […] GFP fluorescence was observed by either Nikon TE200 fluorescent microscopy or Leica TCSNT confocal microscopy.

GH3 promoter = experiment: Arabidopsis mesophyll protoplast transient expression assay, GH3-LUC reporter; assay type: cell-based; settings: 1 μM IAA, 3 hours
Arabidopsis seedlings = experiment: Seedling cytokinin response assay; assay type: in vivo; settings: medium with 0.15 mg/L IAA alone or with 0.15 mg/L IAA and 5 mg/L 2IP, 14 days
Description: In tissue culture, induction of cell proliferation and subsequent shoot formation require cytokinin. To determine whether the same cytokinin signalling pathway is responsible for transcription regulation, cell proliferation, shoot meristem initiation, and leaf formation, we developed a seedling cytokinin response assay. In FIGS. 4A and 4B, Arabidopsis seedlings were transformed with Agrobacteria carrying GFP, CKI1, CKI1 (H405Q), ARR2, and ARR6 constructs in the mini-binary vector pCB302 (Xiang et al., Plant Mol. Biol. 40: 711-7, 1999). Seedlings transformed with the Agrobacteria carrying the binary vector pCB301 […] a Bar selection marker were used as a transformation control (vector). The transformed seedlings were selected with glufosinate ammonium (10 μg/ml) and maintained on medium with auxin (IAA) only (FIG. 4A, +IAA, −2IP) or with auxin and cytokinin (FIG. 4B, +IAA, +2IP) for 14 days. The transformed tissues were mostly derived from the shoot apical meristem. […] Both CKI1 and ARR2 promoted extensive cell proliferation and shoot formation even without exogenous cytokinin. The experiments were repeated three times with similar results. […] The results of this cytokinin seedling assay are consistent with those from protoplast transient expression analyses based on transcription. […]

AHP5-GFP = settings: 100 nM t-zeatin, 30 minutes
Description: (§2) To gain further in vivo support for the involvement of AHPs in cytokinin signalling, the action of AHP1-GFP in transfected protoplast in the absence or presence of cytokinin was followed using fluorescence microscopy. Specifically, protoplasts were transfected with AHP1-GFP, AHP2-GFP, or AHP5-GFP and incubated for 3 hours to allow sufficient expression.
as §1

AHP1-GFP = settings: 100 nM t-zeatin, 30 minutes
Description: as §2, §1

CKI1-GFP = experiment: GFP fusion expression and localization in transfected protoplasts (confocal microscopy); assay type: cell-based, Arabidopsis; settings: tunicamycin 1 μg/ml, 12 hours
Description: To gain insight into where the cytokinin signalling is perceived, the sub-cellular localization of CKI1 was examined using the CKI1-GFP fusion. We first confirmed that CKI1-GFP acted similarly as CKI1-HA in the protoplast assay based on ARR6-LUC activation (FIG. 1D). […] Specifically, protoplasts were transfected with CKI1-GFP or various GFP marker plasmid DNA. Tunicamycin (1 μg/ml) treatment was for 12 hours. The transfected protoplasts were analyzed with a confocal microscope. The subcellular GFP markers are “CAT-GFP” for the cytosol, “ER-GFP” for the endoplasmic reticulum, and “N-GFP” (HSP-GFP) for the nucleus. Since the N-terminus of CKI1 is replete with putative glycosylation sites, the effect of a glycosylation inhibitor, tunicamycin, in CKI1-GFP expression, localization or function was examined.

CC1=CC(=O)CC(C)(C)[C@@]1(O)/C=C/C(C)=C\C(=O)O [ABA, abscisic acid]
RD29A promoter induction (RD29A promoter): solely induced | activity of ARR6-LUC (hormone specificity) (ARR6 promoter): not by other plant hormones

c1ccc(CNc2ncnc3nc[nH]c23)cc1 [BA, benzyladenine]
induction of the reporter gene ARR6-LUC by cytokinin analogues (ARR6 promoter): induced

O=C(O)Cc1c[nH]c2ccccc12 [IAA, indole-3-acetic acid]
GH3 promoter activation (GH3 promoter): only activated | callus / shoot formation of GFP control transformed seedlings (Arabidopsis seedlings): green callus formation | activity of ARR6-LUC (hormone specificity) (ARR6 promoter): not by other plant hormones

C/C(=C\CNc1ncnc2nc[nH]c12)CO [t-zeatin, trans-zeatin]
AHP5-GFP cytokinin-dependent translocation (AHP5-GFP): not | AHP1-GFP localization after cytokinin treatment (AHP1-GFP): translocated into the nucleus | activity of ARR6-LUC (hormone specificity) (ARR6 promoter): specifically induced | induction of the reporter gene ARR6-LUC by cytokinin analogues (ARR6 promoter): induced

tunicamycin
expression of CKI1-GFP (CKI1-GFP): completely abolished | expression of other GFP constructs (CKI1-GFP; CAT-GFP, ER-GFP, N-GFP markers): did not affect

B1: ARR10: Arabidopsis B-type response regulator (SEQ ID NO.: 9), over-expressed from effector plasmid (protein, listed as Arabidopsis thaliana)
chain: MTMEQEIEVLDQFPVGMRVLAVDDDQTCLRILQTLLQRCQYHVTTTNQAQTALELLRENKNKFDLVISDVDMPDMDGFKLLELVGLEMDLPVIMLSAHSDPKYVMKGVKHGACDYLLKPVRIEELKNIWQHVVRKSKLKKNKSNVSNGSGNCDKANRKRKEQYEEEEEEERGNDNDDPTAQKKPRVLWTHELHNKFLAAVDHLGVERAVPKKILDLMNVDKLTRENVASHLQKFRVALKKVSDDAIQQANRAAIDSHFMQMNSQKGLGGFYHHHRGIPVGSGQFHGGTTMMRHYSSNRNLGRLNSLGAGMFQPVSSSFPRNHNDGGNILQGLPLEELQINNNINRAFPSFTSQQNSPMVAPSNLLLLEGNPQSSSLPSNPGFSPHFEISKRLEHWSNAALSTNIPQSDVHSKPDTLEWNAFCDSASPLVNPNLDTNPASLCRNTGFGSTNAAQTDFFYPLQMNQQPANNSGPVTEAQLFRSSNPNEGLLMGQQKLQSGLMASDAGSLDDIVNSLMTQEQSQSDFSEGDWDLDGLAHSEHAYEKLHFPFSLSA
activation of ARR6-LUC by over-expressed effector (ARR6 promoter): about 10 fold | further enhancement by cytokinin of effector's effect on ARR6-LUC activity (ARR6 promoter; with cytokinin, relative to effector alone): 10-20 fold

B2: ARR1: Arabidopsis B-type response regulator (SEQ ID NO.: 2), over-expressed from effector plasmid (protein, listed as Arabidopsis thaliana)
chain: MALSLLRKNKHGFDIVISDVHMPDMDGFKLLEHVGLEMDLPVIMMSADDSKSVVLKGVTHGAVDYLIKPVRMEALKNIWQHVVRKRRSEWSVPEHSGSIEETGERQQQQHRGGGGGAAVSGGEDAVDDNSSSVNEGNNWRSSSRKRKDEEGEEQGDDKDEDASNLKKPRVVWSVELHQQFVAAVNQLGVEKAVPKKILELMNVPGLTRENVASHLQKYRIYLRRLGGVSQHQGNLNNSFMTGQDASFGPLSTLNGFDLQALAVTGQLPAQSLAQLQAAGLGRPAMVSKSGLPVSSIVDERSIFSFDNTKTRFGEGLGHHGQQPQQQPQMNLLHGVPTGLQQQLPMGNRMSIQQQIAAVRAGNSVQNNGMLMPLAGQQSLPRGPPPMLTSSQSSIRQPMLSNRISERSGFSGRNNIPESSRVLPTSYTNLTTQHSSSSMPYNNFQPELPVNSFPLASAPGISVPVRKATSYQEEVNSSEAGFTTPSYDMFTTRQNDWDLRNIGIAFDSHQDSESAAFSASEAYSSSSMSRHNTTVAATEHGRNHQQPPSGMVQHHQVYADGNGGSVRVKSERVATDTATMAFHEQYSNQEDLMSALLKQEGIAPVDGEFDFDAYSIDNIPV
activation of ARR6-LUC by over-expressed effector (ARR6 promoter): about 40 fold

B3: ARR2: Arabidopsis B-type response regulator (SEQ ID NO.: 3), over-expressed from effector plasmid (protein, listed as Arabidopsis thaliana)
chain: MVNPGHGRGPDSGTAAGGSNSDPFPANLRVLVVDDDPTCLMILERMLMTCLYREQRAHCLCFGRTKNGFDIVISDVHMPDMDGFKLLEHVGLEMDLPVINLNVLKPLVIVMSADDSKSVVLKGVTHGAVDYLIKPVRIEALKNIWQHVVRKKRNEWNVSEHSGGSIEDTGGDRDRQQQHREDADNNSSSVNEGNGRSSRKRKEEEVDDQGDDKEDSSSLKKPRVVWSVELHQQFVAAVNQLGVDSELKTCLLMHLCVSIGNIVEFQKYRIYLRRLGGVSQHQGNMNHSFMTGQDQSFGPLSSLNGFDLQSLAVTGQLPPQSLAQLQAAGLGRPTLAKPGMSVSPLVDQRSIFNFENPKIRFGDGHGQTMNNGNLLHGVPTGSHMRLRPGQNVQSSGMMLPVADQLPRGGPSMLPSLGQQPILSSSVSRRSDLTGALAVRNSIPETNSRVLPTTHSVFNNFPADLPRSSFPLASAPGISVPVSVSYQEEVNSSDAKGGSSAATAGFGNPSYDIFNDFPQHQQHNKNISNKLNDWDLRNMGLVFSSNQDAATATATAAFSTSEAYSSSSTQRKRRETDATVVGEHGQNLQSPSRNLYHLNHVFMDGGSVRVKSERVAETVTCPPANTLFHEQYNQEDLMSAFLKQV
activation of ARR6-LUC by over-expressed effector (ARR6 promoter): ~400 fold | activation of ARR6-LUC by over-expressed effector with cytokinin treatment (ARR6 promoter; with cytokinin (100 nM t-zeatin, 3 hours)): over 1000 fold
